{"source": "patent US20140363486A1", "about": "“METHODS FOR REDUCING OR ALTERING SCAR FORMATION” (Prelief, Inc., priority 2007, published 2014)", "key": {"[1]": {"system": "burn wound to the inner forearm", "experiment": "Burn wound to the inner forearm, right side of the wound treated", "format": "in vivo, human", "from_the_text": "Color variations in the background of the photos are an artifact of the time of the day and the location when the pictures were taken.\nFIGS. 4a-4f illustrate the wound healing effect of a glycerophosphate salt on a burn wound to the inner forearm of a human subject. […] The left-side of the wound received no treatment."}, "[2]": {"system": "surgical wounds resulting from double knee replacement operations", "experiment": "20-patient clinical study, surgical wounds from double knee replacement operations, one leg treated", "format": "in vivo, human", "from_the_text": "FIGS. 2a-2d are black and white photocopies of the color photographs of the knees of another human subject. They received simultaneous bilateral total knee replacements. […] Their left leg (on the right side of the photographs) received no CGP treatment.\nFIGS. 2a, 2b, 2c and 2d, which are black and white photocopies of the color photographs of the knees of one of the 20 human subjects, illustrate the exemplary results from the clinical study. The subject received simultaneous bilateral total knee replacements. […] Their left leg (on the right side of the photographs) received no CGP treatment. Since the commencement of the treatment, 2 ml of Cellerity® 10 lotion was topically applied to the wounds of the knee surgeries twice daily everyday and will continue for 6 consecutive weeks.\nThe untreated leg, in contrast, has deep, wandering scars that are almost chasms in their depth and raw openness.\nIn contrast, SteriStripes were required to be applied to the untreated leg and continued for an additional 6 days.\nIn addition, two subjects of the first five subjects enrolled in the double knee replacement clinical study described above reported they felt “less heat” in their knee incision site treated with CGP than in the untreated knee site during the early weeks of post operative recovery."}, "[3]": {"system": "wounds resulting from an excision surgery to the nose", "experiment": "Bilateral surgical nose excision wounds, one wound treated", "format": "in vivo, human", "details": "left-side wound", "from_the_text": "FIGS. 3a-3f illustrate the wound healing effect of a glycerophosphate salt on wounds resulting from an excision surgery, e.g., to the nose. A subject received two surgically inflicted wounds to their nose occasioned by removal of benign growths. […] Per physician's request, Neosporin® was applied to both wounds for one week, and Cellerity® was applied topically to the worst of the two wounds, i.e., the left-side surgical wound (on the right side of the photographs), twice daily. The subject was instructed to return to the laboratory for weekly observations."}, "[4]": {"system": "rhino mucosal passage inflammation", "experiment": "Observation of low CGP concentrations on rhino mucosal passage inflammation", "format": "in vivo", "details": "lower concentrations, between 1% and 2% by weight", "from_the_text": "In one embodiment of the present invention, an effective amount of a glycerophosphate salt, in a form of dry powder, granules, or gel is applied directly to the wound via spray, physical transfer by finger or implement to form a coating on the wound. The coating can contain a final local concentration of the glycerophosphate salt of about 0.5%-100% by weight. For example, the final local concentration of the glycerophosphate salt can be about 0.5% to about 5%, about 5% to about 15%, about 15% to about 25%, about 25% to about 35%, about 35% to about 45%, about 45% to about 55%, about 55% to about 65%, about 65% to about 75%, about 75% to about 85%, or about 85% to about 100%, by weight."}}, "data": [{"substance": "calcium glycerophosphate [CGP]", "values": [{"measurement": "time at which the wound healing improvement effect was first observed", "setting": "[1]; Cellerity lotion (7.5% (w/w) CGP) twice daily for the first three days, from 24 hours post infliction", "value": 3, "unit": "days"}, {"measurement": "wound status", "setting": "[1]; after 16 days of CGP treatment, 7.5% lotion for three days, then 37% (w/w) CGP paste, the untreated side still had a pinkish color", "value": "completely healed and disappeared"}, {"measurement": "healing of the surgical wound / surgical scar", "setting": "[2]; Cellerity 10 lotion (10% (w/w) CGP), 2 ml twice daily from approx. 72 hours post operation, up to 14 days post operation, vs untreated leg", "value": "healed dramatically better"}, {"measurement": "swelling and continuing pale inflammation", "setting": "[2]; Cellerity 10 lotion twice daily, 14 days post operation, observed in the untreated leg", "value": "showed neither"}, {"measurement": "need for SteriStrips post staple removal", "setting": "[2]; treated leg, the untreated leg required SteriStrips for an additional 6 days", "value": "alleviated the need for application of SteriStrips"}, {"measurement": "heat felt in the knee incision site", "setting": "[2]; two of the first five subjects enrolled, treated vs untreated knee site, early weeks of post operative recovery", "value": "less heat"}, {"measurement": "wound appearance", "setting": "[3]; after 6 days of CGP treatment", "value": "appeared less deep than it was a week ago"}, {"measurement": "wound appearance", "setting": "[3]; after 16 days of CGP treatment", "value": "appeared significantly advanced"}, {"measurement": "wound appearance", "setting": "[3]; after 30 days of CGP treatment", "value": "healed, fully recolonized with epidermal skin"}, {"measurement": "wound appearance", "setting": "[3]; after 36 days of CGP treatment", "value": "completely healed"}, {"measurement": "wound appearance", "setting": "[3]; after 51 days of CGP treatment", "value": "completely healed"}, {"measurement": "wound healing, subject's report", "setting": "[3]; after one day of treatment, Cellerity (7.5% (w/w) CGP) twice daily, Neosporin on both wounds for one week", "value": "almost immediate apparent change in wound healing in favor of the CGP treated site"}, {"measurement": "effect on apparent rhino mucosal passage inflammation", "setting": "[4]", "value": "favorably affect"}]}]}
